Results from paper PMC7615053 (Nature methods, 2023).
Read-outs that look alike come from different tables or passages of the source. Blank lines part the entries; values can stand above or below the compound they belong to.

What was measured:
GRABNE1m [1] = system: GRABNE1m
nLightG [2] = target: T1, nLightG (Physeter macrocephalus, UniProt A0A2Y9EW94); assay: Ligand perfusion on acute brain slices; set-up: species or system sperm whale
T1 sequence (A0A2Y9EW94 with tags, fused parts or gaps): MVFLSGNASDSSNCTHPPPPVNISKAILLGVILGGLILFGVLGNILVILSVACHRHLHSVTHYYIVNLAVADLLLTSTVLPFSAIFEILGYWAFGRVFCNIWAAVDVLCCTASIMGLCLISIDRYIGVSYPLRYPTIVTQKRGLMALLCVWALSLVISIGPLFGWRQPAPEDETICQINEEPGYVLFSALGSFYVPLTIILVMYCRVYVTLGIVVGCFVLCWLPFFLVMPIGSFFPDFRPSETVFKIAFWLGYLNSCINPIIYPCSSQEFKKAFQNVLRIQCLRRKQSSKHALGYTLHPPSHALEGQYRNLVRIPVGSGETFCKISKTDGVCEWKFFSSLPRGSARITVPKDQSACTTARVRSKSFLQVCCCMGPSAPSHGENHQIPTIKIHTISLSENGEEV

nLightR [3] = target: T2, nLightR (Physeter macrocephalus, UniProt A0A2Y9EW94); assay: Confocal imaging of nLightR in HEK293T cells; type: cell-based, sperm whale; details: for fluorescence response of nLightR to neurotransmitter: 10 μM, HEK293T cells
T2 sequence (A0A2Y9EW94 with tags, fused parts or gaps): T1 sequence (A0A2Y9EW94 with tags, fused parts or gaps)

human DRD1 = details: DA 10 μM, DRD1 (positive control)
nLightR [4] = target: T2, nLightR; assay: Ligand perfusion on acute brain slices; set-up: species or system sperm whale
nLightG [5] = target: T1, nLightG; assay: Confocal imaging of nLightG in HEK293T cells; type: cell-based, sperm whale; details: for fluorescence response of nLightG to neurotransmitter: 10 μM, HEK293T cells
[6] = target: T3, sperm whale-based indicator (Alpha-1 AR, red prototype) (Physeter macrocephalus, UniProt A0A2Y9EW94); assay: Dose-response of the sperm whale-based red indicator prototype in HEK293T cells; type: cell-based
T3 sequence (A0A2Y9EW94 with tags, fused parts or gaps): T1 sequence (A0A2Y9EW94 with tags, fused parts or gaps)

nLightG [7] = target: T1, nLightG; assay: Plate reader dose-response of nLightG in HEK293T cells; type: cell-based, sperm whale
GRABNE1m [8] = details: HEK293T cells
nLightR [9] = target: T2, nLightR; assay: Plate reader dose-response of nLightR in HEK293T cells; type: cell-based, sperm whale
nLightG [10] = target: T1, nLightG; assay: NanoBiT complementation assay in HEK293T cells; type: cell-based, sperm whale; details: NE 10 μM
swAlpha-1 AR [11] = type: cell-based, sperm whale; details: NE 10 μM, wild-type swAlpha-1 AR, HEK293T
swAlpha-1 AR [12] = assay: NanoBiT complementation assay in HEK293T cells; type: cell-based, sperm whale; details: NE 10 μM
nLightR [13] = target: T2, nLightR; assay: Intracellular calcium signaling; type: cell-based, sperm whale; details: NE 10 μM, HEK293T
[14] = system: green fluorescent NE indicator prototype (sperm whale Alpha-1 AR); assay: Fluorescence response of the green NE indicator prototype; type: cell-based; details: green prototype with fluorescent protein module from dLight1.3b
nLightR [15] = target: T2, nLightR; assay: NanoBiT complementation assay in HEK293T cells; type: cell-based, sperm whale; details: NE 10 μM
nLightG [16] = target: T1, nLightG; assay: Intracellular calcium signaling; type: cell-based, sperm whale; details: NE 10 μM, HEK293T
[17] = system: optogenetically-evoked NE release; assay: Dual-site fiber photometry in LC and dHPC during optogenetic LC stimulation; type: in vivo, mouse; details: desipramine 10 μg/g i.p., awake mice
[18] = system: tail-lift-induced NE release; assay: Fiber photometry in lateral hypothalamus during tail-lifting; type: in vivo, mouse; details: trazodone 1 mg/kg or yohimbine 4 mg/kg, i.p., mice
GRABNE1m [19] = assay: Confocal imaging of GRABNE1m in HEK293T cells; type: cell-based
[20] = system: optogenetically-evoked NE signals; type: in vivo, mouse; details: yohimbine 4 mg/kg i.p., vHPC, isoflurane anesthesia, 5 Hz LC stimulation
[21] = trazodone 10 μM after NE 50 μM, brain slices
[22] = after NE 10 μM, Trz 10 μM, HEK293T cells and neurons

response to DA relative to response to identical concentration of NE (nLightG [2]; 50 μM, mouse LH brain slices): about 12%
fluorescence response of nLightR to neurotransmitter (nLightR [3]): significant fluorescence response
response to DA relative to response to identical concentration of NE (nLightR [4]; 50 μM, mouse LH brain slices): ~3%
fluorescence response of nLightG to neurotransmitter (nLightG [5]): significant fluorescence response
EC50 [6]: 21.5 µM
agonist character at nLightG (nLightG [7]): partial agonist
EC50 of DA relative to that of NE (nLightG [7]; nLightG): approximately 30 fold
EC50 for DA relative to that for NE (GRABNE1m [8]): 8 fold
agonist character at nLightR (nLightR [9]): partial agonist
EC50 of DA relative to that of NE (nLightR [9]; nLightR): approximately 30 fold
SMILES: NCCc1ccc(O)c(O)c1 [DA, dopamine]
response to DA relative to response to NE (GRABNE1m [1]; 50 μM, mouse LH brain slices): about 19%
recruitment of β-arrestin-2 (human DRD1): significant recruitment
maximal response to DA as fraction of the response to NE (GRABNE1m [8]): 35%

coupling to mini-Gq, mini-Gs or mini-Gi (nLightG [10]): did not lead to a significant coupling
recruitment of β-arrestin-2 (nLightG [10]): no recruitment
fluorescence response of nLightR to neurotransmitter (nLightR [3]): significant fluorescence response
fluorescence response of nLightG to neurotransmitter (nLightG [5]): significant fluorescence response
intracellular Ca2+ concentration (nLightR [13]): did not induce a significant increase
EC50 [6]: 0.574 µM
coupling to mini-Gq, mini-Gs or mini-Gi (nLightR [15]): did not lead to a significant coupling
recruitment of β-arrestin-2 (nLightR [15]): no recruitment
intracellular Ca2+ concentration (nLightG [16]): did not induce a significant increase
SMILES: NC[C@H](O)c1ccc(O)c(O)c1 [NE, norepinephrine]
intracellular Ca2+ concentration (swAlpha-1 AR [11]): significant increase
coupling to mini-Gi (swAlpha-1 AR [12]): no significant coupling
coupling to mini-Gq and mini-Gs (swAlpha-1 AR [12]): significant coupling
ΔF/F0 response [14]: approximately 1000%

SMILES: CNCCCN1c2ccccc2CCc2ccccc21 [desipramine]
effect on magnitude and decay kinetics of the nLightG response in LC [17]: significant increase

fluorescence response of nLightR to neurotransmitter (nLightR [3]): significant fluorescence response
fluorescence response of nLightG to neurotransmitter (nLightG [5]): significant fluorescence response
SMILES: CNC[C@H](O)c1ccc(O)c(O)c1 [epinephrine]

effect on NE-induced response (nLightG [2]; [21]): largely reversed
effect of antagonist on NE-induced activation of nLightR (nLightR [3]; [22]): fully reversed
effect on NE-induced response (nLightR [4]; [21]): largely reversed
effect of antagonist on NE-induced activation of nLightG (nLightG [5]; [22]): fully reversed
SMILES: O=c1n(CCCN2CCN(c3cccc(Cl)c3)CC2)nc2ccccn12 [trazodone]
effect on tail-lift-induced GRABNE1m signals [18]: no effect
effect on tail-lift-induced response of nLightG [18]: significantly reduced
effect on tail-lift-induced response of nLightR [18]: significantly reduced
effect on NE-induced response (GRABNE1m [1]; [21]): no significant effect
effect of antagonist on NE-induced activation of GRABNE1m (GRABNE1m [19]; after NE 10 μM, Trz 100 nM, Yoh 100 nM, HEK293T): not affected

SMILES: COC(=O)[C@@H]1[C@H]2C[C@H]3c4[nH]c5ccccc5c4CCN3C[C@@H]2CC[C@@H]1O [yohimbine]
effect on optogenetically-evoked NE signals monitored via GRABNE1m [20]: significantly attenuated
effect on optogenetically-evoked NE signals reported by nLightG [20]: did not have a significant effect
effect on tail-lift-induced GRABNE1m signals [18]: strongly attenuated
effect on tail-lift-induced response of nLightG [18]: increased
effect on tail-lift-induced response of nLightR [18]: increased
effect of antagonist on NE-induced activation of GRABNE1m (GRABNE1m [19]): fully inactivated
